The source of these data is US12497530B2, “Active energy ray polymerization initiator, active energy ray curing composition, active energy ray curing ink, aqueous active energy ray curing ink, container, image forming device, image forming method, and method of manufacturing active energy ray polymerization initiator” (Ricoh Company, Ltd., priority 2021, dated 2025).

The nature of the data set: Absorption spectrum in methylene chloride at 50 ppm. It counts as physicochemical. Conditions: for Absorption of light (absorption spectrum): methylene chloride, 50 ppm, FIGS. 1 to 4. On the procedure:
One way of measuring the λmax of an active energy ray polymerization initiator is to dissolve an active energy ray polymerization initiator in methylene chloride at 50 ppm followed by measuring the absorption spectrum of this solution by a spectrophotometer for ultraviolet, visible light, and near infrared, V-680, manufactured by JASCO Corporation.
The absorption spectrum was measured by a spectrophotometer V-680 for UV, visible light, and near IR, manufactured by JASCO Corporation.
The absorption spectra of the active energy ray polymerization initiators Ref-1, Ref-2, and Ref-4 were measured as described above.

Molecules are shown by their SMILES.

Consider `CC(C)(O)C(=O)c1ccccc1` [Ref-4, 2-Hydroxy-2-methyl-1-phenylpropane-1-one], for which the “Absorption of light (absorption spectrum)” value is on record as “does not absorb light having a wavelength of 350 nm or greater at all”.

Turning to `CCCCCCCCCCCCOc1ccc2sc3ccccc3c(=O)c2c1` [Ref-1, 2-dodecyloxy thioxanthone], the “Absorption of light (absorption spectrum)” value is “fully absorb light having a wavelength of 400 nm or less”. In addition, the “Support of LED light source of 365 nm, 385 nm, and 395 nm” value (judged from absorption spectrum) was “support an LED light source of 365 nm, 385 nm, and 395 nm”.
